From ChEMBL document CHEMBL1140565, “Dipeptidyl alpha-fluorovinyl Michael acceptors: synthesis and activity against cysteine proteases” (Bioorg Med Chem Lett, 2007)

How the values were obtained:
Leishmania mexicana [1] = assay: Inhibition of Leishmania mexicana cysteine protease CBP2.8deltaCTE at 20 ug/mL
Leishmania mexicana [2] = assay: Inhibition of Leishmania mexicana cysteine protease CBP2.8deltaCTE at 2 ug/mL

SMILES	inhibition (Leishmania mexicana [1])	inhibition (Leishmania mexicana [2])
CC(C)(C)OC(=O)N[C@@H](Cc1ccccc1)/C(SCCc1ccccc1)=C(\F)S(=O)(=O)c1ccccc1	38.7%	1.1%
CC(C)(C)OC(=O)N[C@@H](Cc1ccccc1)/C(SCCc1ccccc1)=C(/F)S(=O)(=O)c1ccccc1	15.1%	0%
O=C(N[C@H](/C=C/S(=O)(=O)c1ccccc1)Cc1ccccc1)[C@H](Cc1ccccc1)NC(=O)N1CCOCC1	97%	71.3%
